Reference: US12128030B2, “Pharmaceutical composition comprising antiplatelet agent and gastric acid secretion inhibitor” (HK INNO.N CORPORATION, priority 2018, dated 2024)

Columns and labels:
[1] = clopidogrel in direct contact with compound of Formula 1; 40° C./RH 75%, four weeks
Experimental: A test on blending compatibility with additives was performed in a state, in which clopidogrel was alone and mixed with a compound of Formula 1.
A ratio of additives to main component was adjusted, after which a change of contents and related substances was evaluated under accelerated test conditions (40° C./RH 75%) for four weeks, such that the results thereof are shown in FIGS. 3 to 5.

[2] = Evaluation test on pharmacokinetic drug interactions through nonclinical models; type: in vivo; settings: beagle dogs; combined administration with clopidogrel
Experimental: To determine the effect of esomeprazole (PPI drug) and a compound of Formula 1 on a medicinal effect of clopidogrel, a test on pharmacokinetic drug interactions was performed in such a way that 20 mg of clopidogrel and 20 mg of esomeprazole or 50 mg of the compound of Formula 1 were administered in combination into beagle dogs once or repeatedly (for seven days).
Particularly, clopidogrel was repeatedly administered into ten beagle dogs for seven days, after which esomeprazole and the compound of Formula 1 were administered in combination into those beagle dogs at steady-state for seven days, such that blood was collected therefrom on 5th, 8th and 14th days, to perform a pharmacokinetic analysis before and after the administration.
FIGS. 1 and 2 are graphs of showing a concentration of clopidogrel active metabolites in blood, which was measured after administering esomeprazole and the compound of Formula 1 in combination, respectively.

stability of drug (contents and related substances) [1] | risk of drug interactions with clopidogrel [2] | Structure (SMILES)
stability of a drug deteriorates |  | COC(=O)[C@H](c1ccccc1Cl)N1CCc2sccc2C1 [clopidogrel, methyl (+)-(S)-α-(2-chlorophenyl)-6,7-dihydrothieno[3,2-c]pyridine-5(4H)-acetate]
 | low risk of drug interactions | Cc1nc2c(O[C@H]3CCOc4cc(F)cc(F)c43)cc(C(=O)N(C)C)cc2[nH]1 [compound of Formula 1, (S)-4-[(5,7-difluoro-3,4-dihydro-2H-chromene-4-yl)oxy]-N,N,2-trimethyl-1H-benzimidazole-6-carboxamide]
